Results on nine molecules are retold here after patent publication US20030134292A1, “Thermostable DNA polymerases and methods of making same” (priority 2001, published 2003).

Common to all, as to format: biochemical
Data set [1] has as its target T1, Taq Δ271 F667Y (polymerase A) (Thermus aquaticus, UniProt P19821, F272M/F667Y).
T1 construct: made in house; host or cells: E. coli
The data set is described as follows: DNA polymerase activity assay with detergent or additive, Taq Δ271 F667Y purified without detergent. The following applies: for Polymerase A Activity (%): detergent 0.05% (w/v). On the procedure: (§1) DNA polymerase activity was measured by running reactions of 50 μL containing 25 mM TAPS (tris-hydroxymethyl-methylaminopropane sulfonic acid) buffer, pH 9.3 (measured at 25° C.), 50 mM KCl, 2 mM MgCl2, 1 mM 2-mercaptoethanol, 0.2 mM each of dGTP, dCTP, dTTP, 0.2 mM [α-^33P]-dATP (0.05-0.1 Ci/mmol) and 0.4 mg/mL activated salmon sperm DNA. The reaction mixture (45 μL) was pre-heated to 74° C. and diluted polymerase (5 μL) added with thorough mixing. After 10 minutes of further incubation at 74° C., the reaction was stopped by the addition of 10 μL of 60 mM EDTA and the entire mixture placed at 0° C. Acid-precipitable radioactivity was determined on an aliquot ([…]) by diluting with 1 ml of 2 mM EDTA containing 0.05 mg/ml salmon sperm DNA and adding 1 mL of 20% (w/v) trichloroacetic acid, 2% (w/v) sodium pyrophosphate (Na4P2O7 10H2O) and incubating on ice for at least 15 minutes. Precipitated DNA was collected by filtering through 2.4 cm GFC filter disks (Schleichter and Schuell) and washed 7 times with 5ml of with 1 N HCl, 0.1 M sodium pyrophosphate. The filter was placed in 3 ml of aqueous scintillation counting fluid and ^33P-specific radioactivity determined by scintillation counting.
(§2) For the assays presented in Tables 5 and 6, the polymerase was diluted 10-5000 fold in a buffer containing 25 mM Tris-HCl pH 8.0, 50 mM KCl, 1 mM 2-mercaptoethanol, and the indicated concentration of detergent or other additive. Where possible, only reactions which incorporated 20- 100 pmol of dAMP in 10 minutes were used for calculation of activity.

The target in data set [2] is T2, Taq Δ271 F667Y E681W (polymerase B) (Thermus aquaticus, UniProt P19821, E681W/F272M/F667Y).
T2 construct: made in house; host or cells: E. coli
T2 sequence (P19821 272-832 F272M/F667Y/E681W): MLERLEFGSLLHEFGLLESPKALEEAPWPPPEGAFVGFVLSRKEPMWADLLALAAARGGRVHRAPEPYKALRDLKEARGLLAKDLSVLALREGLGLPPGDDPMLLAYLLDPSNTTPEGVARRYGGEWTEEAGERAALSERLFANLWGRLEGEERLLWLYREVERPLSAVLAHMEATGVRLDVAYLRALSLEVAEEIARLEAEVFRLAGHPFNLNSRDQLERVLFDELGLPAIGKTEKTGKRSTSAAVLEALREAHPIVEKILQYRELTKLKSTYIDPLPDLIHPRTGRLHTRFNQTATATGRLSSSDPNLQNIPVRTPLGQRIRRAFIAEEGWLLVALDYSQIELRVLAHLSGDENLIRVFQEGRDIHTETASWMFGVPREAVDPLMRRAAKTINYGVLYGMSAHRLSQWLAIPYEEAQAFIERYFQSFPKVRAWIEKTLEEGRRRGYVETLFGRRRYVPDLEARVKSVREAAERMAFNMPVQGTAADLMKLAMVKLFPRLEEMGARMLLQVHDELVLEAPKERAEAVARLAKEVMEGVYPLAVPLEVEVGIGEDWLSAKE
The data set is described as follows: DNA polymerase activity assay with detergent or additive, Taq Δ271 F667Y E681W purified without detergent. On the procedure:
as §1, §2

The target in data set [3] is T3, Tth Δ273 F668Y (polymerase C) (Thermus thermophilus, UniProt P52028, F274M/F669Y).
T3 construct: made in house; host or cells: E. coli
T3 sequence (P52028 274-834 F274M/F669Y): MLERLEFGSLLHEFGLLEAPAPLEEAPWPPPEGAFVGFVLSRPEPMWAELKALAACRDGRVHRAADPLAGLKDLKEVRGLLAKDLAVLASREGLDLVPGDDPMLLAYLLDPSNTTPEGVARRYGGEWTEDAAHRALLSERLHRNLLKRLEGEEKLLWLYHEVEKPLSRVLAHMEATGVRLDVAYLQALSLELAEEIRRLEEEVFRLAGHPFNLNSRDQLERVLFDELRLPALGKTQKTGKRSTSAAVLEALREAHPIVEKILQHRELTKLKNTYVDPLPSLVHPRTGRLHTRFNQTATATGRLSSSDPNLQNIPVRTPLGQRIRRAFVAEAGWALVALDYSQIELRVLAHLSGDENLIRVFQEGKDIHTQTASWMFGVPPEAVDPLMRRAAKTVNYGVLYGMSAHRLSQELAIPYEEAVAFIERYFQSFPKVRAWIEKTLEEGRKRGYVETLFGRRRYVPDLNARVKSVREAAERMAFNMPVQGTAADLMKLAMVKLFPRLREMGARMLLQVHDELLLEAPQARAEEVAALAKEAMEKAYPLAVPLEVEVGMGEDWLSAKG
The data set is described as follows: DNA polymerase activity assay with detergent or additive, Tth Δ273 F668Y purified without detergent. As to the method: as §1, §2

In data set [4] the test system is activated salmon sperm DNA. The data set is described as follows: Specific DNA polymerase activity of enzymes purified and assayed with or without Tween 20 and NP-40. On the procedure:
In one embodiment of the present invention, Taq Δ271 F667Y, and Taq Δ271 F667Y E681W were purified with or without detergents NP-40 & Tween-20. The butyl Sepharose chromatography elution profile for polymerase extracted without detergents was essentially identical to the profile for polymerase extracted with Tween 20 and NP-40.
as §1

Where [5] appears, read: additive final concentration 0.01% (w/v).
[6] abbreviates: additive final concentration 0.1% (w/v).
The mark [7] stands for this setting: additive final concentration 0.001% (w/v) in assay reaction mixture.
Setting [8] is: additive final concentration 0.05% (w/v).
The mark [9] stands for this setting: additive final concentration 0.2% (w/v).

`CCCCCCCCO[C@@H]1O[C@H](CO)[C@@H](O)[C@H](O)[C@H]1O` [Octyl Glucopyranoside, n-octyl-β-D-glucopyranoside]: the figures for the “Taq Δ271 F667Y activity relative to 0.5% each NP-40 and Tween 20” value in data set [1] (setting [5]) and in data set [1] (setting [6]) were “− − − (Activity < 20%)” and “− − (Activity 20-50%)”, respectively. The “Taq Δ271 F667Y E681W activity relative to 0.5% each NP-40 and Tween 20” value in data set [2] (setting [5]) was “− − − (Activity < 20%)”; in data set [2] (setting [6]), “+ + + (Activity > 80% (relative to activity using 0.5% each NP-40 and Tween 20))”. Moreover, the “Polymerase B Activity (%)” value in data set [2] (detergent 0.1% (w/v)) is reported as 1%. Besides, the “Tth Δ273 F668Y activity relative to 0.5% each NP-40 and Tween 20” value in data set [3] (setting [5]) was “− − − (Activity < 20%)”; in data set [3] (setting [6]), “+ + + (Activity > 80% (relative to activity using 0.5% each NP-40 and Tween 20))”. For the same molecule, the “Polymerase C Activity (%)” value in data set [3] (detergent 0.1% (w/v)) is listed as 79.7%.

Regarding `CC1=NCC[C@@H](C(=O)O)N1` [Ectoin], the “Taq Δ271 F667Y activity relative to 0.5% each NP-40 and Tween 20” value in data set [1] (setting [7]), in data set [1] (setting [5]) and in data set [1] (setting [6]) was “− − − (Activity < 20%)” each time. The “Taq Δ271 F667Y E681W activity relative to 0.5% each NP-40 and Tween 20” value in data set [2] (setting [7]), in data set [2] (setting [5]) and in data set [2] (setting [6]) was “− − − (Activity < 20%)” in each case. In addition, the “Tth Δ273 F668Y activity relative to 0.5% each NP-40 and Tween 20” value in data set [3] (setting [7]), in data set [3] (setting [5]) and in data set [3] (setting [6]) was “− − − (Activity < 20%)” throughout.

On to `CCCCCCCCCC[N+](C)(C)CCCS(=O)(=O)[O-]` [Zwittergent 3-10], for which the “Taq Δ271 F667Y activity relative to 0.5% each NP-40 and Tween 20” value in data set [1] (setting [8]) is recorded as “− − (Activity 20-50%)”; in data set [1] (setting [6]), “− − (Activity 20-50%)”; in data set [1] (setting [9]), “− (Activity 50-60%)”. The “Taq Δ271 F667Y E681W activity relative to 0.5% each NP-40 and Tween 20” value in data set [2] (setting [8]) is on record as “− − − (Activity < 20%)”; in data set [2] (setting [6]) it was “− − (Activity 20-50%)”; in data set [2] (setting [9]), “− − (Activity 20-50%)”. For the same molecule, the entries for the “Tth Δ273 F668Y activity relative to 0.5% each NP-40 and Tween 20” value in data set [3] (setting [8]), in data set [3] (setting [6]) and in data set [3] (setting [9]) were “− − (Activity 20-50%)”, “+ (Activity 60-70%)” and “+ (Activity 60-70%)”, respectively.

Regarding `CCCCCCCC[N+](C)(C)CCCS(=O)(=O)[O-]` [Zwittergent 3-08], the “Taq Δ271 F667Y activity relative to 0.5% each NP-40 and Tween 20” value is reported as “− − − (Activity < 20%)” in data set [1] (setting [8]), “− − (Activity 20-50%)” in data set [1] (setting [6]) and “− − (Activity 20-50%)” in data set [1] (setting [9]). For the same molecule, the “Taq Δ271 F667Y E681W activity relative to 0.5% each NP-40 and Tween 20” value in data set [2] (setting [8]) is “− − − (Activity < 20%)”; in data set [2] (setting [6]) it was “− − (Activity 20-50%)”; in data set [2] (setting [9]), “− − (Activity 20-50%)”. The “Tth Δ273 F668Y activity relative to 0.5% each NP-40 and Tween 20” value in data set [3] (setting [8]) is “− − (Activity 20-50%)”; in data set [3] (setting [6]) it was “− (Activity 50-60%)”; in data set [3] (setting [9]), “+ (Activity 60-70%)”.

For `CCCCCCCCC(=O)N(C)C[C@H](O)[C@@H](O)[C@H](O)[C@H](O)CO` [Mega-9, Nonyl-N-methylglucamide], the figures for the “Taq Δ271 F667Y activity relative to 0.5% each NP-40 and Tween 20” value in data set [1] (setting [5]) and in data set [1] (setting [8]) were “− − − (Activity < 20%)” and “− − (Activity 20-50%)”, respectively. Also, the “Polymerase A Activity (%)” value in data set [1] is 71.2%. Also, the “Taq Δ271 F667Y E681W activity relative to 0.5% each NP-40 and Tween 20” value in data set [2] (setting [5]) is “− − − (Activity < 20%)”; in data set [2] (setting [8]) it was “+ + (Activity 70-80%)”. Further, the “Polymerase B Activity (%)” value in data set [2] (detergent 0.05% (w/v)) is 82%. The “Tth Δ273 F668Y activity relative to 0.5% each NP-40 and Tween 20” value in data set [3] (setting [5]) was “− − (Activity 20-50%)”; in data set [3] (setting [8]) it was “+ + + (Activity > 80% (relative to activity using 0.5% each NP-40 and Tween 20))”. For the same molecule, the “Polymerase C Activity (%)” value in data set [3] (detergent 0.05% (w/v)) turned out to be 74%.

For the molecule `CCCCCCCCCC(=O)N(C)C[C@H](O)[C@@H](O)[C@H](O)[C@H](O)CO` [Mega-10, D-decanoyl-N-methyl glucamide], the results for the “Taq Δ271 F667Y activity relative to 0.5% each NP-40 and Tween 20” value in data set [1] (setting [7]), in data set [1] (setting [5]) and in data set [1] (setting [8]) were “− − − (Activity < 20%)”, “− − (Activity 20-50%)” and “+ + (Activity 70-80%)”, respectively. Besides, the “Polymerase A Activity (%)” value in data set [1] was 94%. The “Taq Δ271 F667Y E681W activity relative to 0.5% each NP-40 and Tween 20” value was “− − − (Activity < 20%)” in data set [2] (setting [5]); “+ + + (Activity > 80% (relative to activity using 0.5% each NP-40 and Tween 20))” in data set [2] (setting [8]). Besides, the “Polymerase B Activity (%)” value in data set [2] (detergent 0.05% (w/v)) is 73%. The “Tth Δ273 F668Y activity relative to 0.5% each NP-40 and Tween 20” value in data set [3] (setting [7]) is “− − (Activity 20-50%)”; in data set [3] (setting [5]), “+ + (Activity 70-80%)”; in data set [3] (setting [8]), “− − (Activity 20-50%)”. The “Polymerase C Activity (%)” value in data set [3] (detergent 0.05% (w/v)) came to 100%.

Consider `CC1=NC[C@H](O)[C@@H](C(=O)O)N1` [Hydroxyectoin], for which the “Taq Δ271 F667Y activity relative to 0.5% each NP-40 and Tween 20” value in data set [1] (setting [5]) and in data set [1] (setting [8]) was “− − − (Activity < 20%)” each time. Besides, the “Taq Δ271 F667Y E681W activity relative to 0.5% each NP-40 and Tween 20” value in data set [2] (setting [5]) and in data set [2] (setting [8]) was “− − − (Activity < 20%)” in each case. Besides, the “Tth Δ273 F668Y activity relative to 0.5% each NP-40 and Tween 20” value in data set [3] (setting [5]) and in data set [3] (setting [8]) was “− − − (Activity < 20%)” in each case.

For the molecule Sodium Deoxycholate, the “Taq Δ271 F667Y activity relative to 0.5% each NP-40 and Tween 20” value in data set [1] (setting [5]), in data set [1] (setting [8]) and in data set [1] (setting [6]) was “− − − (Activity < 20%)” in each case. For the same molecule, the “Taq Δ271 F667Y E681W activity relative to 0.5% each NP-40 and Tween 20” value in data set [2] (setting [5]), in data set [2] (setting [8]) and in data set [2] (setting [6]) was “− − − (Activity < 20%)” each time. The “Tth Δ273 F668Y activity relative to 0.5% each NP-40 and Tween 20” value in data set [3] (setting [5]), in data set [3] (setting [8]) and in data set [3] (setting [6]) was “− − − (Activity < 20%)” throughout.

B1: Taq Δ271, F667Y: Taq Δ271 F667Y DNA Polymerase (Thermo Sequenase), SEQ ID NO: 10, recombinant thermostable DNA polymerase (protein, listed as Thermus aquaticus)
chain: MLERLEFGSLLHEFGLLESPKALEEAPWPPPEGAFVGFVLSRKEPMWADLLALAAARGGRVHRAPEPYKALRDLKEARGLLAKDLSVLALREGLGLPPGDDPMLLAYLLDPSNTTPEGVARRYGGEWTEEAGERAALSERLFANLWGRLEGEERLLWLYREVERPLSAVLAHMEATGVRLDVAYLRALSLEVAEEIARLEAEVFRLAGHPFNLNSRDQLERVLFDELGLPAIGKTEKTGKRSTSAAVLEALREAHPIVEKILQYRELTKLKSTYIDPLPDLIHPRTGRLHTRFNQTATATGRLSSSDPNLQNIPVRTPLGQRIRRAFIAEEGWLLVALDYSQIELRVLAHLSGDENLIRVFQEGRDIHTETASWMFGVPREAVDPLMRRAAKTINYGVLYGMSAHRLSQELAIPYEEAQAFIERYFQSFPKVRAWIEKTLEEGRRRGYVETLFGRRRYVPDLEARVKSVREAAERMAFNMPVQGTAADLMKLAMVKLFPRLEEMGARMLLQVHDELVLEAPKERAEAVARLAKEVMEGVYPLAVPLEVEVGIGEDWLSAKE
As to B1, the “Assay (%*) specific activity” value in data set [4] (detergent in purification: 0.1% Tween 20, 0.1% NP-40, detergent in assay: 0.1% Tween 20, 0.1% NP-40 (reference, 100%)) turned out to be 100%; in data set [4] (detergent in purification: 0.1% Tween 20, 0.1% NP-40, detergent in assay: None) it was 3%; in data set [4] (detergent in purification: None, detergent in assay: 0.1% Tween 20, 0.1% NP-40) it was 102%; in data set [4] (detergent in purification: None, detergent in assay: None, 100% = polymerase purified and assayed using Tween 20 and NP-40), 5%.
